Literature values in patent publication US20230285286A1, “DRUG VEHICLE COMPOSITIONS AND METHODS OF USE THEREOF” (PS Therapy, Inc., priority 2016, published 2023).
Where a name gives a salt, the structure may show the parent alone.

Assays:
[1] = deionized water at 25° C.

Compound | LogP Value | Solubility in Water (PPM) [1] [PPM]
CN1CCC(=C2c3ccccc3CCn3c(C=O)cnc32)CC1 [Alcaftadine] | 3.2 | 17
CN1CCCC(n2nc(Cc3ccc(Cl)cc3)c3ccccc3c2=O)CC1 (centres unmarked) [Azelastine HCl] | 3.81 | 35
CC[C@H]1OC(=O)[C@H](C)[C@@H](O[C@H]2C[C@@](C)(OC)[C@@H](O)[C@H](C)O2)[C@H](C)[C@@H](O[C@@H]2O[C@H](C)C[C@H](N(C)C)[C@H]2O)[C@](C)(O)C[C@@H](C)CN(C)[C@H](C)[C@@H](O)[C@]1(C)O [Azithromycin] | 3.03 | 2.37
O=C(O)CCCN1CCC(O[C@@H](c2ccc(Cl)cc2)c2ccccn2)CC1.O=S(=O)(O)c1ccccc1 [Bepotastine Besilate] |  | 50
N[C@@H]1CCCCN(c2c(F)cc3c(=O)c(C(=O)O)cn(C4CC4)c3c2Cl)C1 [Besifloxacin] | 0.54 | 0
CC(C)NCC(O)COc1ccc(CCOCC2CC2)cc1 (centres unmarked) [Betaxolol HCl] | 3 | 17190
CCNC(=O)CCC/C=C\C[C@@H]1[C@@H](/C=C/[C@@H](O)CCc2ccccc2)[C@H](O)C[C@@H]1O [Bimatoprost] | 3.2 | 19
Brc1c(NC2=NCCN2)ccc2nccnc12 [Brimonidine] |  | 150
CCN[C@H]1CN(CCCOC)S(=O)(=O)c2sc(S(N)(=O)=O)cc21 [Brinzolamide] | -1.8 | 713
Nc1c(CC(=O)O)cccc1C(=O)c1ccc(Br)cc1 [Bromfenac] | 3.4 | 12
O=C(O)c1cc(=O)c2c(OCC(O)COc3cccc4oc(C(=O)O)cc(=O)c34)cccc2o1 [Cromolyn Sodium] | 4.8 | 100000
CCCC(=O)O[C@]1(C(=O)COC(C)=O)CC[C@H]2[C@@H]3C[C@H](F)C4=CC(=O)C=C[C@]4(C)[C@@]3(F)[C@@H](O)C[C@@]21C [Difluprednate] | 3.28 | 1
CCN[C@H]1C[C@H](C)S(=O)(=O)c2sc(S(N)(=O)=O)cc21 [Dorzolamide] | -1 | 699
CCOCCn1c(N2CCCN(C)CC2)nc2ccccc21 [Emedastine Difumarate] | 2.6 | 1440
NC1=NCC2c3ccccc3Cc3ccccc3N12 (centres unmarked) [Epinastine HCl] | 2.34 | 
CC[C@H]1OC(=O)[C@H](C)[C@@H](O[C@H]2C[C@@](C)(OC)[C@@H](O)[C@H](C)O2)[C@H](C)[C@@H](O[C@@H]2O[C@H](C)C[C@H](N(C)C)[C@H]2O)[C@](C)(O)C[C@@H](C)C(=O)[C@H](C)[C@@H](O)[C@]1(C)O [Erythromycin] | 2.6 | 2000
CC(=O)O[C@]1(C(C)=O)CC[C@H]2[C@@H]3C[C@H](C)C4=CC(=O)C=C[C@]4(C)[C@@]3(F)[C@@H](O)C[C@@]21C [Fluorometholone Acetate] |  | 6.27
CC(C(=O)O)c1ccc(-c2ccccc2)c(F)c1 (centres unmarked) [Flurbiprofen] |  | 5
CC(C)Cc1ccc(C(C)C(=O)O)cc1 (centres unmarked) [Ibuprofen] |  | 21
O=C(c1ccccc1)c1ccc2n1CCC2C(=O)O (centres unmarked) [Ketorolac Tromethamine] | -0.92 | 861

Compound | LogP Value | Solubility in Water (PPM) [1] [PPM]
CN1CCC(=C2c3ccccc3CC(=O)c3sccc32)CC1 [Ketotifen Fumarate] | 3.49 | 7.87
CC(C)OC(=O)CCC/C=C\C[C@@H]1[C@@H](CC[C@@H](O)CCc2ccccc2)[C@H](O)C[C@@H]1O [Latanoprost] |  | 1.29
CC(C)(C)NC[C@H](O)COc1cccc2c1CCCC2=O [Levobunolol HCl] |  | 251
N#Cc1cc(NC(=O)C(=O)O)c(Cl)c(NC(=O)C(=O)O)c1.NC(CO)(CO)CO.NC(CO)(CO)CO [Lodoxamide Tromethamine] | 0.72 | 36.1
CCOC(=O)O[C@]1(C(=O)OCCl)CC[C@H]2[C@@H]3CCC4=CC(=O)C=C[C@]4(C)[C@H]3[C@@H](O)C[C@@]21C [Loteprednol Etabonate] | 3.4 | 0.5
COc1c(N2C[C@@H]3CCCN[C@@H]3C2)c(F)cc2c(=O)c(C(=O)O)cn(C3CC3)c12 [Moxifloxacin] |  | 1146
CCCc1c2oc(C(=O)O)cc(=O)c2cc2c(=O)cc(C(=O)O)n(CC)c12 [Nedocromil Sodium] | 2.82 | 80.8
NC(=O)Cc1cccc(C(=O)c2ccccc2)c1N [Nepafenac] | 1.53 | 14
CN(C)CC/C=C1/c2ccccc2COc2ccc(CC(=O)O)cc21 [Olopatadine HCl] | 3.4 | 31.3
CC(=O)OCC(=O)[C@@]1(O)CC[C@H]2[C@@H]3CCC4=CC(=O)C=C[C@]4(C)[C@H]3[C@@H](O)C[C@@]21C [Prednisolone Acetate] | 1.332 | 
CCC(=O)[C@@]1(C)[C@H](C)C[C@H]2[C@@H]3CCC4=CC(=O)C=C[C@]4(C)[C@H]3[C@@H](O)C[C@@]21C [Rimexolone] | 4.2 | 0
C=CC[C@@H]1/C=C(\C)C[C@H](C)C[C@H](OC)[C@H]2O[C@@](O)(C(=O)C(=O)N3CCCC[C@H]3C(=O)O[C@H](/C(C)=C/[C@@H]3CC[C@@H](O)[C@H](OC)C3)[C@H](C)[C@@H](O)CC1=O)[C@H](C)C[C@@H]2OC [Tacrolimus] | 5.59 | 12
CC(C)OC(=O)CCC/C=C\C[C@@H]1[C@@H](/C=C/C(F)(F)COc2ccccc2)[C@H](O)C[C@@H]1O [Tafluprost] | 4.05 | 0
CC(C)(C)NC[C@H](O)COc1nsnc1N1CCOCC1 [Timolol Maleate] |  | 5000
NC[C@H]1O[C@H](O[C@H]2[C@H](O)[C@@H](O[C@H]3O[C@H](CO)[C@@H](O)[C@H](N)[C@H]3O)[C@H](N)C[C@@H]2N)[C@H](N)C[C@@H]1O [Tobramycin] | -5.8 | 10000
CC(C)OC(=O)CCC/C=C\C[C@@H]1[C@@H](/C=C/[C@@H](O)COc2cccc(C(F)(F)F)c2)[C@H](O)C[C@@H]1O [Travoprost] | 4.6 | 16000
COc1cc(Cc2cnc(N)nc2N)cc(OC)c1OC [Trimethoprim] |  | 999
Gentamicin | -3.1 | 
Gramicidin |  | 6
Polymyxin B |  | 0
